# From patent US20120136066A1, “Glomerulonephritis Treatment” (AVEXXIN AS, priority 2009, published 2012)
# How the values were obtained:
# phospho-p65 (NFκB) = assay: NFκB activation, Western blot of phospho-p65; format: cell-based, rat; details: IL-1β (2 nM) 30 min, 10 μM compound pretreated 2 h, FIG. 6
# Method: Quiescent cells were stimulated for 30 min with either vehicle (DMEM), or IL-1β (2 nM) in the absence (−) or presence (+) of AVX001 or AVX002 (10 μM, pretreated 2 h). Thereafter, cell lysates were separated by SDS-PAGE and subjected to a Western blot analysis using a polyclonal antibody against phospho-p65 (NFκB) (upper panel), HuR as a loading control (middle panel), and IκB (lower panel). Data in FIG. 6A show duplicates of one representative experiments. FIGS. 6B and C show the densitometric evaluation of NFκB and IκB bands.
# NFκB activation was measured by Western blot analyses by detecting the amount of phospho-p65 which represents the active transcription factor subunit.
# [1] = tested on: rat renal mesangial cells; assay: cytokine-stimulated NO formation in mesangial cells (Griess Reaction assay); format: cell-based; details: IL-1β (1 nM), FIG. 3
# Method: Quiescent cells were stimulated with either DMEM (−), IL-1β (1 nM; +), in the absence or presence of the indicated concentrations of AKH-217, AVX002, or AACOCF3. Supernatants were collected and taken for nitric oxide (NO) quantification by using a Griess Reaction assay. Data are expressed as μM of NO in the supernatant and are means±S.D. (n=3).
# (§1) To see whether this effect is due to altered gene transcription of iNOS, luciferase reporter gene assays were performed to measure iNOS promoter activity. A 4.5 kb fragment of the rat iNOS promoter was kindly provided by Dr. K. F. Beck (pharmazentrum frankfurt).
# iNOS = iNOS protein expression, Western blot; format: cell-based, rat; details: mesangial cells, IL-1β (1 nM), FIG. 4A
# Method: (§2) Quiescent cells were stimulated with either vehicle (DMEM), IL-1β (1 nM), in the absence (−) or presence of the indicated concentrations (in μM) of AVX001 and AVX002. EtOH, vehicle control.(A) Cells were taken for protein extraction and equal amount of protein were separated by SDS-PAGE and subjected to a Western blot analysis using a polyclonal antibody against iNOS at a dilution of 1:2000. Data are representative of at least 3 independent experiments giving similar results. (B). Cells were taken for RNA extraction and subjected to quantitative PCR analysis of rat iNOS and 18 S RNA. ΔΔCt values were calculated and results are expressed as % of maximal IL-1β response and are means±S.D (n=3). • (C) Cells were transfected with the rat iNOS promoter construct plus a plasmid coding for the Renilla luciferase. After transfection, cells were stimulated with vehicle (−), IL-1β (1 nM), or IL-1β plus 10 μM of AVX001. iNOS promoter activity was calculated and results are expressed as relative luciferase units (RLU) and are means±S.D. (n=3).
# as §1
# rat iNOS promoter = assay: iNOS promoter activity, luciferase reporter gene assay; format: cell-based; details: IL-1β (1 nM), 10 μM compound, FIG. 4C
# Method: as §2, §1
# rat IIA-sPLA2 promoter = assay: sPLA2 promoter activity, luciferase reporter gene assay; format: cell-based; details: IL-1β (1 nM), 24 h, 10 μM compound, FIG. 2C
# Method: (§3) Quiescent cells were stimulated with either DMEM (−), or IL-1β (1 nM) in the absence (−) or presence of AKH-217 (etOH), vehicle control. • (A) Supernatants were taken for protein precipitation and precipitated proteins were separated by SDS-PAGE and subjected to a Western blot analysis using a monoclonal antibody against rat sPLA2. […] Cells were taken for RNA extraction and subjected to quantitative PCR analysis of rat IIA-sPLA2 and 18 S RNA. ΔΔCt values were calculated and results are expressed as % of maximal IL-1β-stimulated response and are means±S.D. (n=3). • (C) Cells were transfected with the sPLA2 promoter construct plus a plasmid coding for the Renilla luciferase. After transfection, cells were stimulated for 24 h with vehicle (−), IL-1β (1 nM), or IL-1β plus 10 μM of AKH-217. sPLA2 promoter activity was calculated and results are expressed as relative luciferase units (RLU) and are means±S.D. (n=3).
# It has been previously shown that the cytokine-induced PGE2 formation in mesangial cells involves both sPLA2 and cPLA2 activation (Pfeilschifter et al., 1993), we then investigated the effect of the inhibitors above on sPLA2 protein and mRNA expressions. […] This effect on sPLA2 mRNA expression was due to a reducing effect on gene transcription. This was shown by a luciferase reporter gene assay that reflected sPLA2 promoter activity. […]
# IIA-sPLA2 = IIA-sPLA2 protein expression and secretion, Western blot of supernatants; format: cell-based, rat; details: mesangial cells, IL-1β (1 nM), FIG. 2A
# Method: as §3
# (§4) It has been previously shown that the cytokine-induced PGE2 formation in mesangial cells involves both sPLA2 and cPLA2 activation (Pfeilschifter et al., 1993), we then investigated the effect of the inhibitors above on sPLA2 protein and mRNA expressions. […] This effect on sPLA2 mRNA expression was due to a reducing effect on gene transcription. This was shown by a luciferase reporter gene assay that reflected sPLA2 promoter activity.
# mesangial cells = assay: [3H]thymidine incorporation in mesangial cells (proliferation); format: cell-based, rat; details: 24 h; ATP 100 μM, insuline 100 ng/ml or IGF 50 ng/ml, FIGS. 5A and 5B
# Method: Quiescent cells were stimulated for 24 h with vehicle (DMEM), or 100 μM of ATP in the absence (−) or presence of the indicated concentrations of AVX001 or AVX002, in the presence of [^3H]thymidine. • (B) Cells were stimulated for 24 h with insuline (100 ng/ml) or IGF (50 ng/ml) in the absence (−) or presence of 10 μM of AVX001 or AVX002, in the presence of [^3H]thymidine. Thymidine incorporated into DNA was determined and results are expressed as % of control and are means±S.D. (n=3). Glomerulonephritis is characterized in a first early phase by increased mesangial apoptosis which in a second phase is replaced by an opposite event, i.e. hyperproliferation of mesangial cells. Many previous studies have shown that quiescent mesangial cells in culture can re-enter the cell cycle when exposed to various growth factors, including PDGF, insulin, insulin-like growth factor (IGF), or extracellular nucleotides such as ATP and UTP. […] In the presence of either AKH217 or AVX002, agonist-stimulated [^3H]thymidine incorporation is reduced (FIGS. 5A and 5B). Similar data were also obtained when cells were stimulated with PDGF.
# IIA-sPLA2 mRNA = IIA-sPLA2 mRNA expression, quantitative PCR; format: cell-based, rat; details: mesangial cells, IL-1β (1 nM), FIG. 2B
# Method: as §3, §4
SMILES,IL-1β-induced increase of phospho-p65 (phospho-p65 (NFκB)),IL-1β-stimulated NO formation [1],protein expression of iNOS induced by IL-1β (iNOS),IL-1β-stimulated iNOS promoter activity (rat iNOS promoter),IL-1β-stimulated sPLA2 promoter activity (rat IIA-sPLA2 promoter),IIA-sPLA2 protein expression and secretion (IIA-sPLA2),agonist-stimulated [3H]thymidine incorporation (mesangial cells),IIA-sPLA2 mRNA expression (IIA-sPLA2 mRNA)
CC/C=C\C/C=C\C/C=C\C/C=C\CC/C=C/CSCC(=O)C(F)(F)F [AKH-217],reduced,reduced in a dose-dependent manner,down-regulated,completely lost,completely reduced,reduce,reduced,reduce
CC/C=C\C/C=C\C/C=C\C/C=C\C/C=C\CCSCC(=O)C(F)(F)F [AVX002],–,reduced in a dose-dependent manner,down-regulated,–,–,–,reduced,–
